The supplement of paper PMC10307832

Legend:
Assay in all cases: relative viability (nuclei count vs DMSO), 5 days (fraction); higher = more cells survive
[1] = compound: COc1cc(Nc2ncc3c(n2)-c2ccc(Cl)cc2C(c2c(F)cccc2OC)=NC3)ccc1C(=O)O [Alisertib]
Summary of the method: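 Hoechst staining, done together with fixation and permeabilisation, marked nuclei for 4× imaging and MetaXpress counting. This followed 5 days without medium change after lung cancer cell lines, kept overnight at 37 °C in 1536-well plates, were pinned with five library-drug doses (not always all listed) spaced by √10 on vehicle-anchored plates. Viability is the ratio of treated-well to vehicle-well nuclei, expressed as a median across plates. Plates passed only at control CV below 25% with at least one doubling.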

[2] = compound: COc1cc(Nc2ncc3c(n2)-c2ccc(Cl)cc2C(c2c(F)cccc2OC)=NC3)ccc1C(=O)O [Alisertib] + Cc1cc(Nc2cc(N3CCN(C)CC3)nc(Sc3ccc(NC(=O)C4CC4)cc3)n2)n[nH]1 [Tozasertib] (partner 0.1 µM)
Summary of the method: (§1)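 Medians of duplicate plates are given as relative viability. That measure is the nuclei count in treated wells divided by the count in vehicle wells. Counts were taken on 4× images of lung cancer cell lines in 1536-well plates, 5 days after pin-tool dosing the day after seeding with one drug alone or a fixed anchor-drug dose plus five library-drug doses (not always all listed) in √10 steps.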

[3] = compound: COc1cc(Nc2ncc3c(n2)-c2ccc(Cl)cc2C(c2c(F)cccc2OC)=NC3)ccc1C(=O)O [Alisertib] + COc1cc2c(Oc3ccc(NC(=O)C4(C(=O)Nc5ccc(F)cc5)CC4)cc3F)ccnc2cc1OCCCN1CCOCC1 [Foretinib] (partner 0.25 µM)
Summary of the method: as §1

[4] = compound: COc1cc(Nc2ncc3c(n2)-c2ccc(Cl)cc2C(c2c(F)cccc2OC)=NC3)ccc1C(=O)O [Alisertib] + Nc1nc2[nH]cc(CCc3ccc(C(=O)N[C@@H](CCC(=O)O)C(=O)O)cc3)c2c(=O)[nH]1 [Pemetrexed] (partner 0.2 µM)
Summary of the method: as §1

[5] = compound: COc1cc(Nc2ncc3c(n2)-c2ccc(Cl)cc2C(c2c(F)cccc2OC)=NC3)ccc1C(=O)O [Alisertib] + CC(=O)c1c(C)c2cnc(Nc3ccc(N4CCNCC4)cn3)nc2n(C2CCCC2)c1=O [Palbociclib] (partner 0.5 µM)
Summary of the method: as §1

[6] = compound: COc1cc(Nc2ncc3c(n2)-c2ccc(Cl)cc2C(c2c(F)cccc2OC)=NC3)ccc1C(=O)O [Alisertib] + Cc1nc(Nc2ncc(C(=O)Nc3c(C)cccc3Cl)s2)cc(N2CCN(CCO)CC2)n1 [Dasatinib] (partner 0.075 µM)
Summary of the method: as §1

[7] = compound: COc1cc(Nc2ncc3c(n2)-c2ccc(Cl)cc2C(c2c(F)cccc2OC)=NC3)ccc1C(=O)O [Alisertib] + O=C(c1cc(Cc2n[nH]c(=O)c3ccccc23)ccc1F)N1CCN(C(=O)C2CC2)CC1 [Olaparib] (partner 8 µM)
Summary of the method: as §1

[8] = compound: COc1cc(Nc2ncc3c(n2)-c2ccc(Cl)cc2C(c2c(F)cccc2OC)=NC3)ccc1C(=O)O [Alisertib] + CCNC(=O)c1noc(-c2cc(C(C)C)c(O)cc2O)c1-c1ccc(CN2CCOCC2)cc1 [Luminespib] (partner 0.01 µM)
Summary of the method: as §1

[9] = compound: COc1cc(Nc2ncc3c(n2)-c2ccc(Cl)cc2C(c2c(F)cccc2OC)=NC3)ccc1C(=O)O [Alisertib] + Nc1ncn([C@H]2C[C@H](O)[C@@H](CO)O2)c(=O)n1 [Decitabine] (partner 2 µM)
Summary of the method: as §1

[10] = compound: COc1cc(Nc2ncc3c(n2)-c2ccc(Cl)cc2C(c2c(F)cccc2OC)=NC3)ccc1C(=O)O [Alisertib] + COc1cccc2cc(-c3nc([C@H]4CC[C@H](C(=O)O)CC4)n4ncnc(N)c34)[nH]c12 [OSI-027] (partner 0.5 µM)
Summary of the method: as §1

[11] = compound: COc1cc(Nc2ncc3c(n2)-c2ccc(Cl)cc2C(c2c(F)cccc2OC)=NC3)ccc1C(=O)O [Alisertib] + N=C(N)NC(=N)NCCc1ccccc1 [Phenformin] (partner 250 µM)
Summary of the method: as §1

[12] = compound: COc1cc(Nc2ncc3c(n2)-c2ccc(Cl)cc2C(c2c(F)cccc2OC)=NC3)ccc1C(=O)O [Alisertib] + NC(=O)Nc1cc(-c2cccc(F)c2)sc1C(=O)N[C@H]1CCCNC1 [AZD7762] (partner 0.2 µM)
Summary of the method: as §1

[13] = compound: COc1cc(Nc2ncc3c(n2)-c2ccc(Cl)cc2C(c2c(F)cccc2OC)=NC3)ccc1C(=O)O [Alisertib] + O=C(CCCCCCC(=O)Nc1ccccc1)NO [Vorinostat] (partner 1 µM)
Summary of the method: as §1

[14] = compound: COc1cc(Nc2ncc3c(n2)-c2ccc(Cl)cc2C(c2c(F)cccc2OC)=NC3)ccc1C(=O)O [Alisertib] + CC(=O)Nc1cccc(-n2c(=O)n(C3CC3)c(=O)c3c(Nc4ccc(I)cc4F)n(C)c(=O)c(C)c32)c1 [Trametinib] (partner 0.02 µM)
Summary of the method: as §1

## SW 900
[1]; 0.005 µM
  relative viability: 0.635
[1]; 0.01581 µM
  relative viability: 0.81
[1]; 0.05 µM
  relative viability: 0.506
[1]; 0.1581 µM
  relative viability: 0.264
[1]; 0.5 µM
  relative viability: 0.24
[2]; first compound 0.005 µM
  relative viability: 0.557
[2]; first compound 0.01581 µM
  relative viability: 0.54
[2]; first compound 0.05 µM
  relative viability: 0.375
[2]; first compound 0.1581 µM
  relative viability: 0.241
[2]; first compound 0.5 µM
  relative viability: 0.191
[3]; first compound 0.005 µM
  relative viability: 0.68
[3]; first compound 0.01581 µM
  relative viability: 0.832
[3]; first compound 0.05 µM
  relative viability: 0.598
[3]; first compound 0.1581 µM
  relative viability: 0.194
[3]; first compound 0.5 µM
  relative viability: 0.186
[4]; first compound 0.005 µM
  relative viability: 0.445
[4]; first compound 0.01581 µM
  relative viability: 0.459
[4]; first compound 0.05 µM
  relative viability: 0.438
[4]; first compound 0.1581 µM
  relative viability: 0.178
[4]; first compound 0.5 µM
  relative viability: 0.194
[5]; first compound 0.005 µM
  relative viability: 0.461
[5]; first compound 0.01581 µM
  relative viability: 0.475
[5]; first compound 0.05 µM
  relative viability: 0.303
[5]; first compound 0.1581 µM
  relative viability: 0.245
[5]; first compound 0.5 µM
  relative viability: 0.227
[6]; first compound 0.005 µM
  relative viability: 0.494
[6]; first compound 0.01581 µM
  relative viability: 0.435
[6]; first compound 0.05 µM
  relative viability: 0.404
[6]; first compound 0.1581 µM
  relative viability: 0.171
[6]; first compound 0.5 µM
  relative viability: 0.172
[7]; first compound 0.005 µM
  relative viability: 0.897
[7]; first compound 0.01581 µM
  relative viability: 0.648
[7]; first compound 0.05 µM
  relative viability: 0.306
[7]; first compound 0.1581 µM
  relative viability: 0.29
[7]; first compound 0.5 µM
  relative viability: 0.298
[8]; first compound 0.005 µM
  relative viability: 0.16
[8]; first compound 0.01581 µM
  relative viability: 0.167
[8]; first compound 0.05 µM
  relative viability: 0.182
[8]; first compound 0.1581 µM
  relative viability: 0.188
[8]; first compound 0.5 µM
  relative viability: 0.176
[9]; first compound 0.005 µM
  relative viability: 0.419
[9]; first compound 0.01581 µM
  relative viability: 0.377
[9]; first compound 0.05 µM
  relative viability: 0.296
[9]; first compound 0.1581 µM
  relative viability: 0.213
[9]; first compound 0.5 µM
  relative viability: 0.255
[10]; first compound 0.005 µM
  relative viability: 0.532
[10]; first compound 0.01581 µM
  relative viability: 0.399
[10]; first compound 0.05 µM
  relative viability: 0.543
[10]; first compound 0.1581 µM
  relative viability: 0.167
[10]; first compound 0.5 µM
  relative viability: 0.111
[11]; first compound 0.005 µM
  relative viability: 0.434
[11]; first compound 0.01581 µM
  relative viability: 0.589
[11]; first compound 0.05 µM
  relative viability: 0.442
[11]; first compound 0.1581 µM
  relative viability: 0.18
[11]; first compound 0.5 µM
  relative viability: 0.141
[12]; first compound 0.005 µM
  relative viability: 0.568
[12]; first compound 0.01581 µM
  relative viability: 0.617
[12]; first compound 0.05 µM
  relative viability: 0.637
[12]; first compound 0.1581 µM
  relative viability: 0.232
[12]; first compound 0.5 µM
  relative viability: 0.17
[13]; first compound 0.005 µM
  relative viability: 0.351
[13]; first compound 0.01581 µM
  relative viability: 0.369
[13]; first compound 0.05 µM
  relative viability: 0.476
[13]; first compound 0.1581 µM
  relative viability: 0.221
[13]; first compound 0.5 µM
  relative viability: 0.223
[14]; first compound 0.005 µM
  relative viability: 0.917
[14]; first compound 0.01581 µM
  relative viability: 0.827
[14]; first compound 0.05 µM
  relative viability: 0.374
[14]; first compound 0.1581 µM
  relative viability: 0.217
[14]; first compound 0.5 µM
  relative viability: 0.144
